Source: PubChem BioAssay (NCI)
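1) Cells in 96-well plates. 2) Compound, 48 h, 5 concentrations. 3) Linear interpolation between surrounding doses. 4) Unreached endpoint = highest concentration. At the TGI there is no net growth.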

Assays:
Assay in all cases: growth of human tumour cells (NCI), 48 h
PC-3 prostate = tested on: PC-3 prostate
OVCAR-8 ovarian = tested on: OVCAR-8 ovarian
IGROV1 ovarian = tested on: IGROV1 ovarian
KM12 colon = tested on: KM12 colon
NCI-H522 lung = tested on: NCI-H522 lung
M14 melanoma = tested on: M14 melanoma
HS 578T breast = tested on: HS 578T breast
SK-MEL-28 melanoma = tested on: SK-MEL-28 melanoma
MDA-MB-435 = tested on: MDA-MB-435
HCC-2998 colon = tested on: HCC-2998 colon
MDA-N = tested on: MDA-N
A498 renal = tested on: A498 renal
HCT-116 colon = tested on: HCT-116 colon
786-0 renal = tested on: 786-0 renal
MCF7 breast = tested on: MCF7 breast
SR leukemia = tested on: SR leukemia
UO-31 renal = tested on: UO-31 renal
T-47D breast = tested on: T-47D breast
COLO 205 colon = tested on: COLO 205 colon
SN12C renal = tested on: SN12C renal

SMILES | TGI (PC-3 prostate) | TGI (OVCAR-8 ovarian) | TGI (IGROV1 ovarian) | TGI (KM12 colon) | TGI (NCI-H522 lung) | TGI (M14 melanoma) | TGI (HS 578T breast) | TGI (SK-MEL-28 melanoma) | TGI (MDA-MB-435) | TGI (HCC-2998 colon) | TGI (MDA-N) | TGI (A498 renal) | TGI (HCT-116 colon) | TGI (786-0 renal) | TGI (MCF7 breast) | TGI (SR leukemia) | TGI (UO-31 renal) | TGI (T-47D breast) | TGI (COLO 205 colon) | TGI (SN12C renal)
O=P1(C(O)/C=C/c2ccccc2)N(Cc2ccccc2)[C@H](c2ccccc2)[C@@H](c2ccccc2)N1Cc1ccccc1 (stereo partly specified) | > 94.7 µM | > 55.1 µM | > 44.6 µM | > 100 µM | 59.2 µM | > 100 µM | > 90.2 µM | > 100 µM | > 93.3 µM | > 100 µM | > 100 µM | > 100 µM | > 100 µM | > 100 µM | > 100 µM | 70.7 µM | 98.3 µM | > 100 µM | 31.8 µM | > 100 µM
COc1ccc(/C=C2\CCCC(CN(C)C)C2=O)cc1 (stereo unspecified) | 18.4 µM | 26.4 µM | 7.51 µM | 2.75 µM | 2.85 µM | 4.21 µM | 10.9 µM | 3.77 µM | 6.96 µM | 16.6 µM | 8.5 µM | 30.4 µM | 3.19 µM | 3.47 µM | 1.45 µM | 2.42 µM | 8.57 µM | 7.72 µM | 4.45 µM | 7.12 µM
CCC1=NC(N/N=C/c2ccco2)=N/C1=C\c1ccccc1O | > 100 µM | > 100 µM | 93.1 µM | > 100 µM | 49.3 µM | > 100 µM | > 100 µM | > 100 µM | > 100 µM | 89.8 µM | > 100 µM | > 100 µM | 56.8 µM | > 100 µM | > 100 µM | > 100 µM | > 100 µM | > 100 µM | > 100 µM | > 100 µM
N#Cc1c(N2CCCC2)nsc1NCc1ccccc1 | > 100 µM | > 100 µM | > 100 µM | > 100 µM | > 100 µM | > 100 µM | > 100 µM | > 100 µM | > 100 µM | > 100 µM | > 100 µM | > 100 µM | > 100 µM | > 100 µM | > 100 µM | > 100 µM | 65 µM | > 100 µM | > 100 µM | > 100 µM
C=CCn1c(=O)c2ccccc2[n+]2c(C)c(C(=O)OCC)sc12 | > 100 µM | > 100 µM | > 100 µM | > 100 µM | > 100 µM | > 100 µM | > 100 µM | > 100 µM | > 100 µM | > 100 µM | > 100 µM | – | > 100 µM | > 100 µM | > 100 µM | > 100 µM | > 100 µM | > 100 µM | > 100 µM | > 100 µM
CN(C)c1ccc(/C=c2/c3ccccc3n3c2c2ccccc2[n+]3C)cc1 | 1.54 µM | 2.34 µM | 2.27 µM | 10.7 µM | 0.619 µM | 1.69 µM | 4.42 µM | 2.08 µM | 1.87 µM | 3.33 µM | 1.89 µM | 5.14 µM | 2.74 µM | 1.69 µM | 5.46 µM | 1.98 µM | 3.9 µM | 1.51 µM | 0.488 µM | 2.55 µM
COC(=O)c1c2c(cc3c1CC1(Cc4cc5c(c(C=O)c4C1)CCCC5)C3)CCCC2 (stereo unspecified) | > 100 µM | > 100 µM | > 100 µM | – | > 100 µM | > 100 µM | > 100 µM | – | > 100 µM | > 100 µM | > 100 µM | > 100 µM | 47.3 µM | > 100 µM | 87.2 µM | > 100 µM | 0.268 µM | > 100 µM | 36.6 µM | > 100 µM
CCCCCC(C)(C)CCC(=O)OC1OC(COC2OC(COC3OC(CO)C(O)C(O)C3O)C(O)C(O)C2O)C(O)C(O)C1O (stereo unspecified) | > 100 µM | > 100 µM | > 100 µM | > 100 µM | > 100 µM | > 100 µM | > 100 µM | – | > 100 µM | > 100 µM | > 100 µM | > 100 µM | > 100 µM | > 100 µM | > 100 µM | > 100 µM | > 100 µM | > 100 µM | > 100 µM | > 100 µM
CC1CC(C)C(O)C(C2CC(CC(=O)NC3CCCCC3)CC(=O)O2)C1 (stereo unspecified) | > 100 µM | > 100 µM | > 100 µM | > 100 µM | > 100 µM | > 100 µM | > 100 µM | > 100 µM | > 100 µM | > 100 µM | > 100 µM | > 100 µM | > 100 µM | > 100 µM | > 100 µM | > 100 µM | – | > 100 µM | > 100 µM | > 100 µM
COc1cc(Cc2cc3c(c(C(=O)O)c2Br)OCO3)cc(OC)c1OC | > 100 µM | > 100 µM | > 100 µM | > 100 µM | – | > 100 µM | > 100 µM | > 100 µM | > 100 µM | > 100 µM | 67 µM | > 100 µM | > 100 µM | > 100 µM | > 100 µM | 89 µM | > 100 µM | > 100 µM | > 100 µM | > 100 µM
COc1cc(C2SC(N)=Nc3c2c(C)nn3C(=O)c2ccccc2O)cc(OC)c1OC (stereo unspecified) | > 10 µM | > 10 µM | 9.01 µM | > 10 µM | – | > 10 µM | 8.53 µM | > 10 µM | > 10 µM | – | > 10 µM | > 10 µM | > 10 µM | > 10 µM | > 10 µM | > 10 µM | > 10 µM | > 10 µM | > 10 µM | > 10 µM
Cc1c2c(c(C)n1-c1ccccc1)C(=O)N(CCCCN1CCN(c3ccccc3)CC1)C2=O | 39.5 µM | 31.4 µM | > 100 µM | > 100 µM | 39.4 µM | 79.7 µM | > 100 µM | – | 40.8 µM | 27.1 µM | 31.2 µM | 69 µM | 20.9 µM | 19 µM | 35.8 µM | 27 µM | 24.8 µM | 28.8 µM | 21.7 µM | 43.9 µM
